“And” between values parts separate entries of the source, which are not always exact repeats. Identical values can stand only once.
What was measured:
[1] = system: A549 cells; assay: Cytotoxicity potentiation assay (topotecan); assay type: cell-based; conditions: test compound at 0.4 μM, ratio of IC50 of topotecan alone to IC50 of topotecan with test compound
[2] = target: purified PARP protein (Homo sapiens, UniProt P09874); assay: PARP enzyme inhibition assay; assay type: biochemical; conditions: [32P]NAD+ incorporation, 500 μM NAD+, 25° C.; two values in a cell = tested twice; read-out: Inhibition Constant Ki
purified PARP protein, sequence (P09874 whole entry): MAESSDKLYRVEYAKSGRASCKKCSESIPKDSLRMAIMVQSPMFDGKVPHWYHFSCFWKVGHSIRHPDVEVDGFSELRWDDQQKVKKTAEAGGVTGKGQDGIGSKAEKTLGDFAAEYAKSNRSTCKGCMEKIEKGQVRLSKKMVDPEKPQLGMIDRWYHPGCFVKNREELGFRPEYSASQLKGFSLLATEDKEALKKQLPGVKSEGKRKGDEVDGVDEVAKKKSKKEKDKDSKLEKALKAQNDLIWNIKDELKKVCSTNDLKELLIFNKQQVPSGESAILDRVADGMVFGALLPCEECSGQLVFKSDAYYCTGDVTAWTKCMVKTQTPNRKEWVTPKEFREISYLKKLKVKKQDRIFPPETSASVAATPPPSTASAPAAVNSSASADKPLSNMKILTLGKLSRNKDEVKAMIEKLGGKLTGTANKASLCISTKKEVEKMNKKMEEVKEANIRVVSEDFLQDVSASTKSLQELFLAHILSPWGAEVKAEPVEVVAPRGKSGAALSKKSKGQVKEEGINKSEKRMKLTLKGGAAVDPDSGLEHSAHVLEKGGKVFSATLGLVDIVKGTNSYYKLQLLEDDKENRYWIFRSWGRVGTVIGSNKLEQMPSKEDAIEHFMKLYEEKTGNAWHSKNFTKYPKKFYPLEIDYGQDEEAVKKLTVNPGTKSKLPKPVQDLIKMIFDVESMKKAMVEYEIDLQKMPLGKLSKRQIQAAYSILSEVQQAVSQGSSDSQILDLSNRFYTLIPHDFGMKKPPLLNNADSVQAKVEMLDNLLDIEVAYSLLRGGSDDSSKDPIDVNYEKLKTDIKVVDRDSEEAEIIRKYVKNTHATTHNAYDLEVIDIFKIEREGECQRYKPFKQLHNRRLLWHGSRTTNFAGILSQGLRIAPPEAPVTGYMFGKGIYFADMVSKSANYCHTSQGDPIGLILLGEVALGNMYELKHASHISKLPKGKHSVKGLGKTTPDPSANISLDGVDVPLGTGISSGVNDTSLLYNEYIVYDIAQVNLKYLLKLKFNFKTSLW

SMILES	Ki [2]	melting point	Cytotoxicity Potentiation PF50 [1]
O=C1NCCc2c(-c3ccccc3)[nH]c3cccc1c23 [Compound 12, 2-Phenyl-3,4,5,6-tetrahydro-1H-azepino[5,4,3-cd]indol-6-one]	4.2 nM	–	1.8
CN(C)Cc1cccc(-c2[nH]c3cccc4c3c2CCNC4=O)c1 [Compound 22, 2-(3-(N,N-Dimethylamino)methylphenyl)-3,4,5,6-tetrahydro-1H-azepino[5,4,3-cd]indol-6-one]	7.2 nM	222 to 225 °C	2.3
O=C1NN=Cc2c[nH]c3cccc1c23 [Compound 27, 1,5-Dihydro-[1,2]diazepino[4,5,6-cd]-indol-6-one]	3.4 nM	–	1.3
O=C1NN=C(c2ccccc2)c2c[nH]c3cccc1c23 [Compound 28, 1,5-Dihydro-3-phenyl-[1,2]diazepino[4,5,6-cd]-indol-6-one]	4 nM and 3.8 nM	–	1
O=C1NN=C(CCc2ccccc2)c2c[nH]c3cccc1c23 [Compound 29, 1,5-Dihydro-3-phenethyl-[1,2]diazepino[4,5,6-cd]-indol-6-one]	8 nM	–	1
O=C(Nc1ccc(F)cc1)c1[nH]c2cccc3c2c1CCNC3=O [Compound YYY, 6-Oxo-3,4,5,6-tetrahydro-1H-azepino[5,4,3-cd]indole-2-carboxylic acid (4-fluorophenyl)-amide]	6.3 nM	–	1.5
CNCc1cccc(-c2[nH]c3cc(F)cc4c3c2CCNC4=O)c1 [HHHH, 8-Fluoro-2-(3-methylaminomethyl-phenyl)-1,3,4,5-tetrahydro-azepino[5,4,3-cd]indol-6-one]	2.2 nM	270 to 272 °C (dec.)	1.9
CNCc1ccc(-c2[nH]c3cccc4c3c2CCNC4=O)cc1 [OO, 2-(4-(N-Methylamino)methylphenyl)-3,4,5,6-tetrahydro-1H-azepino[5,4,3-cd]indol-6-one]	4.1 nM	–	2.4
O=C1NCCc2c(-c3cccc(Oc4ccc(F)cc4)c3)[nH]c3cccc1c23 [UU, 2-[3-(4-Fluoro-phenoxy)-phenyl]-1,3,4,5-tetrahydro-azepino[5,4,3-cd]indol-6-one]	10 nM	240 to 241 °C	1.8
O=C1NCCc2c(-c3ccc(-c4ccccc4)cc3)[nH]c3cccc1c23 [VV, 2-Biphenyl-4-yl-1,3,4,5-tetrahydro-azepino[5,4,3-cd]indol-6-one]	10 nM	277 to 279 °C (dec.)	2.0
C[N+](C)([O-])Cc1ccc(-c2[nH]c3cccc4c3c2CCNC4=O)cc1 [XXXX, 2-(4-(N,N-Dimethylamino)methylphenyl)-3,4,5,6-tetrahydro-1H-azepino[5,4,3-cd]indol-6-one, N-oxide]	18 nM	–	1.7

Further lines, with some results ahead:

Ki [2]	melting point	SMILES	Cytotoxicity Potentiation PF50 [1]
5 nM	258 to 259 °C (dec.)	O=C1NCCc2c(-c3cccc(CO)c3)[nH]c3cccc1c23 [Compound 16, 2-(3-Hydroxymethylphenyl)-3,4,5,6-tetrahydro-1H-azepino[5,4,3-cd]indol-6-one]	1.9
6.3 nM	212.5 to 213.5 °C	O=C1NCCc2c(-c3cccc(C(F)(F)F)c3)[nH]c3cccc1c23 [Compound 30, 2-(3-Trifluoromethyl-phenyl)-1,3,4,5-tetrahydro-azepino[5,4,3-cd]indol-6-one]	2.4
5.3 nM	190 to 192 °C	CNCc1cccc(-c2[nH]c3cccc4c3c2CCNC4=O)c1 [Compound PP, 2-(3-(N-Methylamino)methylphenyl)-3,4,5,6-tetrahydro-1H-azepino[5,4,3-cd]indol-6-one]	2.3
9.4 nM	221.5 to 222.5 °C	CN(C)Cc1ccc(-c2[nH]c3cccc4c3c2CCNC4=O)cc1F [Compound PPP, 2-(4-Dimethylaminomethyl-3-fluoro-phenyl)-1,3,4,5-tetrahydro-azepino[5,4,3-cd]indol-6-one]	2.1
4.1 nM	250 to 252 °C	O=C1NCCc2c(-c3ccc(Cl)cc3)[nH]c3cccc1c23 [GGG, 2-(4-Chloro-phenyl)-1,3,4,5-tetrahydro-azepino[5,4,3-cd]indol-6-one]	1.9
4.4 nM	–	O=C1NCCc2c(-c3ccc(CN4CCCC4)cc3)[nH]c3cc(F)cc1c23 [JJJJ, 8-Fluoro-2-(4-pyrrolidin-1-ylmethyl-phenyl)-1,3,4,5-tetrahydro-azepino[5,4,3-cd]indol-6-one]	2.4
9.4 nM	228 to 229 °C (dec.)	O=C1NCCc2c(-c3ccc(CCN4CCCC4)cc3)[nH]c3cccc1c23 [MMM, 2-[4-(2-Pyrrolidin-1-yl-ethyl)-phenyl]-1,3,4,5-tetrahydro-azepino[5,4,3-cd]indol-6-one]	2.3
10.2 nM	139 to 140 °C (dec.)	O=C1NCCc2c(-c3ccc(CN4CCCC4)c(F)c3)[nH]c3cccc1c23 [QQQ, 2-(3-Fluoro-4-pyrrolidin-1-ylmethyl-phenyl)-1,3,4,5-tetrahydro-azepino[5,4,3-cd]indol-6-one]	2.3
7.4 nM	219 to 223 °C (dec.)	O=C1NCCc2c(-c3cccc(CN4CCCC4)c3)[nH]c3cccc1c23 [TTTT, 2-(3-Pyrrolidin-1-ylmethylphenyl)-3,4,5,6-tetrahydro-1H-azepino[5,4,3-cd]indol-6-one]	1.6
13.2 nM	–	O=C1NCCc2c(-c3ccc(CN4CCOCC4)cc3)[nH]c3cccc1c23 [VVVV, 2-(4-Morpholin-4-ylmethylphenyl)-3,4,5,6-tetrahydro-1H-azepino[5,4,3-cd]indol-6-one]	2.1
